# Target: PHD-bromodomain of TRIM24 (Homo sapiens (Human), UniProt O15164)
# Experiment: TRIM24 binding alpha assay
# Settings: Alpha Assay binding to TRIM24; compounds 50 μM to 0.002 μM
# Protocol: The alpha TRIM24 binding assay is used to assess the binding of the compounds of the application. Compounds are added at various concentrations as well as a vehicle control. Compounds that bind to TRIM24 compete away the interaction between the PHD-bromodomain of TRIM24 bound to the donor bead, and the H3K23ac histone peptide bound to the acceptor bead, which causes a decrease in signal. IC50 values are calculated.
# The alpha assay was used to assess the binding of the compounds of the application to TRIM24 at various concentrations. All compounds were added at concentrations from 50 μM to 0.002 μM. Compounds that bind to TRIM24 compete with the PHD-bromodomain of TRIM24 in interacting with the donor bead, and the H3K23ac histone peptide bound to the acceptor bead, which causes a decrease in signal. IC50 values were calculated by using Graphpad PRISM's log(inhibitor) vs. response—variable slope (four parameters).
# Chain of PHD-bromodomain of TRIM24 (O15164 824-1006): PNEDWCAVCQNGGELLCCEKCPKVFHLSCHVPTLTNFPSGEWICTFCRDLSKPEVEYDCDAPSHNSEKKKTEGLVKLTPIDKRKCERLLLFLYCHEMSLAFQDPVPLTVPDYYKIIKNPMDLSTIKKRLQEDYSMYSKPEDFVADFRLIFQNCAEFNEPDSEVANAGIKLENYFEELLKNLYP
row,SMILES,IC50 [nM]
1,"COc1ccc(Oc2cc3c(cc2NS(=O)(=O)c2ccc(OC)c(OC)c2)n(C)c(=O)n3C)cc1 [Cmpd A, reference compound]",> 500
2,"COc1ccc(S(=O)(=O)Nc2cc3c(cc2Oc2cccc(OCc4ccccc4)c2)n(C)c(=O)n3C)cc1OC [Cmpd B, reference compound]",50 to 100
3,"Cc1nc(S(=O)(=O)Nc2cc3c(cc2Oc2cccc(OCC(C)C)c2)n(C)c(=O)n3C)cn1C [Cmpd C, reference compound]",< 50
4,"CCCOc1cccc(Oc2cc3c(cc2NS(=O)(=O)c2ccc(OC)c(OC)c2)n(C)c(=O)n3C)c1 [Cmpd D, reference compound]",< 50
5,"CCCOc1cccc(Oc2cc3c(cc2NS(=O)(=O)c2cccc(C(=O)NCCCCNC(=O)CC45CC6CC(CC(C6)C4)C5)c2)n(C)c(=O)n3C)c1 [Cmpd E, reference compound]",100 to 500
6,"COc1ccc(S(=O)(=O)Nc2cc3c(cc2Oc2ccc(OCC(=O)NCCCCNC(=O)COc4cccc5c4C(=O)N(C4CCC(=O)NC4=O)C5=O)cc2)n(C)c(=O)n3C)cc1OC (centres unmarked) [I-A1, 2-(4-((6-((3,4-dimethoxyphenyl)sulfonamido)-1,3-dimethyl-2-oxo-2,3-dihydro-1H-benzo[d]imidazol-5-yl)oxy)phenoxy)-N-(4-(2-((2-(2,6-dioxopiperidin-3-yl)-1,3-dioxoisoindolin-4-yl)oxy)acetamido)butyl)acetamide]",> 500
7,"COc1ccc(S(=O)(=O)Nc2cc3c(cc2Oc2ccc(OCC(=O)NCCCCCCCCNC(=O)COc4cccc5c4C(=O)N(C4CCC(=O)NC4=O)C5=O)cc2)n(C)c(=O)n3C)cc1OC (centres unmarked) [I-A2, 2-(4-((6-((3,4-dimethoxyphenyl)sulfonamido)-1,3-dimethyl-2-oxo-2,3-dihydro-1H-benzo[d]imidazol-5-yl)oxy)phenoxy)-N-(8-(2-((2-(2,6-dioxopiperidin-3-yl)-1,3-dioxoisoindolin-4-yl)oxy)acetamido)octyl)acetamide]",> 500
8,"COc1ccc(S(=O)(=O)Nc2cc3c(cc2Oc2ccc(OCC(=O)NCCCOCCOCCOCCCNC(=O)COc4cccc5c4C(=O)N(C4CCC(=O)NC4=O)C5=O)cc2)n(C)c(=O)n3C)cc1OC (centres unmarked) [I-A3, 2-(4-((6-((3,4-dimethoxyphenyl)sulfonamido)-1,3-dimethyl-2-oxo-2,3-dihydro-1H-benzo[d]imidazol-5-yl)oxy)phenoxy)-N-(1-((2-(2,6-dioxopiperidin-3-yl)-1,3-dioxoisoindolin-4-yl)oxy)-2-oxo-7,10,13-trioxa-3-azahexadecan-16-yl)acetamide]",> 500
9,"CCCOc1cccc(Oc2cc3c(cc2NS(=O)(=O)c2cccc(C(=O)NCCCCNC(=O)COc4cccc5c4C(=O)N(C4CCC(=O)NC4=O)C5=O)c2)n(C)c(=O)n3C)c1 (centres unmarked) [I-A4, 3-(N-(1,3-dimethyl-2-oxo-6-(3-propoxyphenoxy)-2,3-dihydro-1H-benzo[d]imidazol-5-yl)sulfamoyl)-N-(4-(2-((2-(2,6-dioxopiperidin-3-yl)-1,3-dioxoisoindolin-4-yl)oxy)acetamido)butyl)benzamide]",50 to 100
10,"CCCOc1cccc(Oc2cc3c(cc2NS(=O)(=O)c2cccc(C(=O)NCCCCCCCCNC(=O)COc4cccc5c4C(=O)N(C4CCC(=O)NC4=O)C5=O)c2)n(C)c(=O)n3C)c1 (centres unmarked) [I-A5, 3-(N-(1,3-dimethyl-2-oxo-6-(3-propoxyphenoxy)-2,3-dihydro-1H-benzo[d]imidazol-5-yl)sulfamoyl)-N-(8-(2-((2-(2,6-dioxopiperidin-3-yl)-1,3-dioxoisoindolin-4-yl)oxy)acetamido)octyl)benzamide]",100 to 500
11,"CCCOc1cccc(Oc2cc3c(cc2NS(=O)(=O)c2cccc(C(=O)NCCCOCCOCCOCCCNC(=O)COc4cccc5c4C(=O)N(C4CCC(=O)NC4=O)C5=O)c2)n(C)c(=O)n3C)c1 (centres unmarked) [I-A6, 3-(N-(1,3-dimethyl-2-oxo-6-(3-propoxyphenoxy)-2,3-dihydro-1H-benzo[d]imidazol-5-yl)sulfamoyl)-N-(1-((2-(2,6-dioxopiperidin-3-yl)-1,3-dioxoisoindolin-4-yl)oxy)-2-oxo-7,10,13-trioxa-3-azahexadecan-16-yl)benzamide]",< 50
12,"Cc1nc(S(=O)(=O)Nc2cc3c(cc2Oc2cccc(OCC(=O)NCCCCNC(=O)COc4cccc5c4C(=O)N(C4CCC(=O)NC4=O)C5=O)c2)n(C)c(=O)n3C)cn1C (centres unmarked) [I-A7, 2-(3-((6-((1,2-dimethyl-1H-imidazole)-4-sulfonamido)-1,3-dimethyl-2-oxo-2,3-dihydro-1H-benzo[d]imidazol-5-yl)oxy)phenoxy)-N-(4-(2-((2-(2,6-dioxopiperidin-3-yl)-1,3-dioxoisoindolin-4-yl)oxy)acetamido)butyl)acetamide]",> 500
13,"Cc1nc(S(=O)(=O)Nc2cc3c(cc2Oc2cccc(OCC(=O)NCCCCCCCCNC(=O)COc4cccc5c4C(=O)N(C4CCC(=O)NC4=O)C5=O)c2)n(C)c(=O)n3C)cn1C (centres unmarked) [I-A8, 2-(3-((6-((1,2-dimethyl-1H-imidazole)-4-sulfonamido)-1,3-dimethyl-2-oxo-2,3-dihydro-1H-benzo[d]imidazol-5-yl)oxy)phenoxy)-N-(8-(2-((2-(2,6-dioxopiperidin-3-yl)-1,3-dioxoisoindolin-4-yl)oxy)acetamido)octyl)acetamide]",> 500
14,"Cc1nc(S(=O)(=O)Nc2cc3c(cc2Oc2cccc(OCC(=O)NCCCOCCOCCOCCCNC(=O)COc4cccc5c4C(=O)N(C4CCC(=O)NC4=O)C5=O)c2)n(C)c(=O)n3C)cn1C (centres unmarked) [I-A9, 2-(3-((6-((1,2-dimethyl-1H-imidazole)-4-sulfonamido)-1,3-dimethyl-2-oxo-2,3-dihydro-1H-benzo[d]imidazol-5-yl)oxy)phenoxy)-N-(1-((2-(2,6-dioxopiperidin-3-yl)-1,3-dioxoisoindolin-4-yl)oxy)-2-oxo-7,10,13-trioxa-3-azahexadecan-16-yl)acetamide]",> 500
15,"CCCOc1cc(OCCCCN(C)C)cc(Oc2cc3c(cc2NS(=O)(=O)c2cccc(C(=O)NCCCCNC(=O)COc4cccc5c4C(=O)N(C4CCC(=O)NC4=O)C5=O)c2)n(C)c(=O)n3C)c1 (centres unmarked) [I-A10, 3-(N-(6-(3-(4-(dimethylamino)butoxy)-5-propoxyphenoxy)-1,3-dimethyl-2-oxo-2,3-dihydro-1H-benzo[d]imidazol-5-yl)sulfamoyl)-N-(4-(2-((2-(2,6-dioxopiperidin-3-yl)-1,3-dioxoisoindolin-4-yl)oxy)acetamido)butyl)benzamide]",< 50
16,"CCCOc1cc(OCCCCN(C)C)cc(Oc2cc3c(cc2NS(=O)(=O)c2cccc(C(=O)NCCCCCCCCNC(=O)COc4cccc5c4C(=O)N(C4CCC(=O)NC4=O)C5=O)c2)n(C)c(=O)n3C)c1 (centres unmarked) [I-A11, 3-(N-(6-(3-(4-(dimethylamino)butoxy)-5-propoxyphenoxy)-1,3-dimethyl-2-oxo-2,3-dihydro-1H-benzo[d]imidazol-5-yl)sulfamoyl)-N-(8-(1-((2-(2,6-dioxopiperidin-3-yl)-1,3-dioxoisoindolin-4-yl)oxy)acetamido)octyl)benzamide]",< 50
17,"CCCOc1cc(OCCCCN(C)C)cc(Oc2cc3c(cc2NS(=O)(=O)c2cccc(C(=O)NCCCOCCOCCOCCCNC(=O)COc4cccc5c4C(=O)N(C4CCC(=O)NC4=O)C5=O)c2)n(C)c(=O)n3C)c1 (centres unmarked) [I-A12, 3-(N-(6-(3-(4-(dimethylamino)butoxy)-5-propoxyphenoxy)-1,3-dimethyl-2-oxo-2,3-dihydro-1H-benzo[d]imidazol-5-yl)sulfamoyl)-N-(1-((2-(2,6-dioxopiperidin-3-yl)-1,3-dioxoisoindolin-4-yl)oxy)-2-oxo-7,10,13-trioxa-3-azahexadecan-16-yl)benzamide]",< 50
18,"CCCOc1cccc(Oc2cc3c(cc2NS(=O)(=O)c2cccc(C(=O)NCCOCCOCCOc4cc(-c5scnc5C)ccc4CNC(=O)[C@@H]4C[C@@H](O)CN4C(=O)[C@H](C(C)C)N4Cc5ccccc5C4=O)c2)n(C)c(=O)n3C)c1 [I-B1, (2S,4R)—N-(2-(2-(2-(2-(3-(N-(1,3-dimethyl-2-oxo-6-(3-propoxyphenoxy)-2,3-dihydro-1H-benzo[d]imidazol-5-yl)sulfamoyl)benzamido)ethoxy)ethoxy)ethoxy)-4-(4-methylthiazol-5-yl)benzyl)-4-hydroxy-1-((S)-3-methyl-2-(1-oxoisoindolin-2-yl)butanoyl)pyrrolidine-2-carboxamide]",100 to 500
19,"CCCOc1cccc(Oc2cc3c(cc2NS(=O)(=O)c2cccc(C(=O)NCCOCCOCC(=O)N[C@H](C(=O)N4C[C@H](O)C[C@H]4C(=O)NCc4ccc(-c5scnc5C)cc4)C(C)(C)C)c2)n(C)c(=O)n3C)c1 [I-B2, (4R)-1-((S)-12-(tert-butyl)-1-(3-(N-(1,3-dimethyl-2-oxo-6-(3-propoxyphenoxy)-2,3-dihydro-1H-benzo[d]imidazol-5-yl)sulfamoyl)phenyl)-1,10-dioxo-5,8-dioxa-2,11-diazatridecan-13-oyl)-4-hydroxy-N-(4-(4-methylthiazol-5-yl)benzyl)pyrrolidine-2-carboxamide]",< 50
20,"CCCOc1cc(OCCCCN(C)C)cc(Oc2cc3c(cc2NS(=O)(=O)c2cccc(C(=O)NCCOCCOCCOCC(=O)N[C@H](C(=O)N4C[C@H](O)C[C@H]4C(=O)NCc4ccc(-c5scnc5C)cc4)C(C)(C)C)c2)n(C)c(=O)n3C)c1 [I-B4, (2S,4R)-1-((S)-15-(tert-butyl)-1-(3-(N-(6-(3-(4-(dimethylamino)butoxy)-5-propoxyphenoxy)-1,3-dimethyl-2-oxo-2,3-dihydro-H-benzo[d]imidazol-5-yl)sulfamoyl)phenyl)-1,13-dioxo-5,8,11-trioxa-2,14-diazahexadecan-16-oyl)-4-hydroxy-N-(4-(4-methylthiazol-5-yl)benzyl)pyrrolidine-2-carboxamide]",< 50

# Source: patent US10702504B2, “Degradation of tripartite motif-containing protein 24 (TRIM24) by conjugation of TRIM24 inhibitors with E3 ligase ligand and methods of use” (Dana-Farber Cancer Institute, Inc., priority 2016, dated 2020)
